This note sets out measurements from patent US8563562B2, “Compounds having antiviral properties” (priority 2008, dated 2013).

The structures appear in SMILES notation.

Common to all, as to format: cell-based
Assay [1] relates to HIV variant T661/S153Y integrase. Put plainly: PhenoScreen (Phenosense) assay, single-round luciferase pseudotyped HIV. The settings on record: Human immunodeficiency virus 1, read-out: Activity, Phenosense assay, T661 S153Y. From the text:
(§1) Monogram Bioscience' PhenoScreen assay allows the evaluation of integrase inhibitors for activity against a variety of HIV variants. The assay uses virus generated from 2 DNA constructs; one containing the HIV LTR, gag and pol regions, as well as a luciferase reporter gene in place of the viral envelope genes, and a second DNA construct containing the amphotrophic murine leukemia virus (A-MLV) envelope gene required to pseudotype virions and render them capable of entry into a target cell. Viruses generated using these constructs by transfection into a producer cell line such as 293T are capable of one-round of infection only. Successful integration events are directly proportional to the levels of luciferase expression 48 h after infection.
(§2) The viral variants chosen by the present inventors to screen integration inhibitors consist of mutations within the viral integrase enzyme known to confer resistance to a number of known integration inhibitors published in the literature. In particular, the viral variants containing the Q148H/G140S double mutation in integrase, and the N155H/E92Q double mutation in integrase, represent two of the more common viruses identified to arise in patients that are failing treatment with Isentress (Raltegravir, MK-0518).

Assay [2] deals with HIV variant G140S/Q148H integrase. The description is as above. The settings on record: Human immunodeficiency virus 1, read-out: Activity, Phenosense assay, G140S Q148H.
Excerpt: as §1, §2

The test system of assay [3] is HIV variant E92Q/N155H integrase. The assay is described as above. The settings on record: for EC50: Human immunodeficiency virus 1, read-out: Activity, Phenosense assay, E92Q/N155H.
Excerpt: as §1, §2

The next assay has as its system HIV WT integrase. The description is as above. The settings on record: Human immunodeficiency virus 1, read-out: Activity, Phenosense assay, WT.
Excerpt: as §1, §2

Assay [4] relates to HIV variant T125K/F121Y integrase. Described as above. Particulars: for EC50: Human immunodeficiency virus 1, read-out: Activity, Phenosense assay, T125K F121Y.
Excerpt: as §1, §2

Assay [5] deals with HIV variant Y143R integrase. The assay is described as above. Particulars: for EC50: Human immunodeficiency virus 1, read-out: Activity, Phenosense assay, Y143R.
Excerpt: as §1, §2

Assay [6] has as its system HIV-1 reporter virus, wild-type (WT) integrase. Put plainly: Luciferase reporter virus infectivity assay in 293T cells. Particulars: Human immunodeficiency virus 1, HEK-293T, 48 h, read-out: Luciferase assay EC50, WT. From the text: (§3) Infectivity assays using reporter viruses derived from lentiviral vectors capable of a single round of infection were used to determine the activity (EC50) of compounds. The DNA used to generate viruses for infection was the full-length HIV-1 genome which had been envelope-deleted. In addition, a reporter gene (the firefly luciferase gene from Photinus pyralis) was cloned into the nef region of the HIV backbone for ease of assay readout. […]. Culture supernatants containing VSV-G pseudotyped virions were harvested 64 h post transfection, clarified by centrifugation to remove cell debris, and frozen at −70° C. until use.
(§4) HIV integrase was mutated within a shuttle vector (pGEM) containing the majority of the HIV-1 gag and pol sequence using site-directed mutagenesis to generate sequences that are known to confer resistance to published integrase inhibitors. These include but are not limited to mutations such as Q148H/G140S (in table #QHGS), N155H/E92Q (in table #NHEQ), F121Y/T124K (in table FYTK), Y143R (in table #Y143R) and the triple mutant Q148K/G140A/E138A. (in table#QKGAEA). The mutated integrase coding region within the shuttle vector was sequence verified, and then exchanged for the wild-type (WT) coding sequence in the reporter virus DNA backbone.
(§5) 293T cells were plated out at 12000 cells per well in CellView 96-well cell culture plates (Invitrogen) 16 h prior to compound addition. Compounds were preincubated with cells for 4 h at 37° C. prior to the addition of virus sufficient to generate approximately 10000 Luciferase light units (as measured by the Victor Wallace luminometer) upon assaying using the Bright-Glo™ reagent (Promega) according to the manufacturer's instructions at 48 h post infection.

The subject of assay [7] is HIV-1 reporter virus, Q148K/G140A/E138A (QKGAEA) integrase. The assay is described as above. Particulars: Human immunodeficiency virus 1, HEK-293T, 48 h, read-out: Luciferase assay EC50, QKGAEA.
Excerpt: as §3, §4, §5

For assay [8], the system named is HIV-1 reporter virus, N155H/E92Q (NHEQ) integrase. The assay is described as above. The settings on record: Human immunodeficiency virus 1, HEK-293T, 48 h, read-out: Luciferase assay EC50, NHEQ.
Excerpt: as §3, §4, §5

Assay [9] relates to HIV-1 reporter virus, Q148H/G140S (QHGS) integrase. The description is as above. Particulars: Human immunodeficiency virus 1, HEK-293T, 48 h, read-out: Luciferase assay EC50, QHGS.
Excerpt: as §3, §4, §5

In assay [10] the test system is HIV-1 reporter virus, F121Y/T124K (FYTK) integrase. The description is as above. The settings on record: Human immunodeficiency virus 1, HEK-293T, 48 h, read-out: Luciferase assay EC50, FYTK.
Excerpt: as §3, §4, §5

For assay [11], the system named is HIV-1 reporter virus, Y143R integrase. The assay is described as above. The settings on record: Human immunodeficiency virus 1, HEK-293T, 48 h, read-out: Luciferase assay EC50, Y143R.
Excerpt: as §3, §4, §5

As to `O=C(NCc1ccc(F)cc1)c1nc2c(I)cc(N3CCOCC3)cn2c(=O)c1O` [Comparative example 3, reference compound], the EC50 in [1] is 1 to 100 nM; in assay [2], over 10 µM; in assay [3], 1 to 100 nM; with HIV WT integrase, 1 to 100 nM; in assay [4] it was 1 to 100 nM; in assay [5], 1 to 100 nM.

As to `O=c1c(O)c(-c2ncc(Cc3ccc(F)cc3)o2)nc2c(I)cc(N3CCOCC3)cn12` [Example 4, 2-[5-(4-fluoro-benzyl)-oxazol-2-yl]-3-hydroxy-9-iodo-7-morpholin-4-yl-pyrido[1,2-a]pyrimidin-4-one], the EC50 in assay [1] was 1 to 100 nM; in assay [2] it was over 10 µM; in assay [3], 1 to 100 nM; with HIV WT integrase, 1 to 100 nM; in assay [4], 1 to 100 nM; in [5], 1 to 100 nM. The “improvement in activity over comparative example 3, E92Q/N155H” value in assay [3] (footnote b, E92Q/N155H mutant) is on record as “b 2-fold improvement in activity over comparative example 3”. Moreover, the “improvement in activity over comparative example 3, T125K F121Y” value in assay [4] (footnote a, T125K/F121Y mutant) was “a 2.5-fold improvement in activity over comparative example 3”. Besides, the “improvement in activity over comparative example 3, Y143R” value in [5] (footnote a, Y143R mutant) is listed as “a 2.5-fold improvement in activity over comparative example 3”.

On to `O=c1c(O)c(-c2ncc(Cc3ccc(F)cc3)o2)nc2ccc(N3CCOCC3)cn12` [Example 7, 2-[5-(4-fluoro-benzyl)-oxazol-2-yl]-3-hydroxy-7-morpholin-4-yl-pyrido[1,2-a]pyrimidin-4-one], for which the EC50 in assay [1] lay in the range of 1 to 100 nM; in assay [2] it was 1 to 10 µM; in [3] it was 100 to 1000 nM; in the assay with HIV WT integrase, 1 to 100 nM; in assay [4] it was 100 to 1000 nM; in assay [5], 1 to 100 nM.

For the compound `O=c1c(O)c(-c2ncc(Cc3ccc(F)cc3)s2)nc2ccc(N3CCOCC3)cn12` [Example 41, 2-[5-(4-Fluoro-benzyl)-thiazol-2-yl]-3-hydroxy-7-morpholin-4-yl-pyrido[1,2-a]pyrimidin-4-one], the EC50 in [6] was 1 to 100 nM; in assay [7], over 1000 nM; in assay [8], 1 to 100 nM; in assay [9], over 1000 nM; in assay [1], 1 to 100 nM; in [2], 0.1 to 1 µM. The EC50 in assay [3] fell in the range of 100 to 1000 nM; in the assay on HIV WT integrase, 1 to 100 nM; in assay [4] it was 1 to 100 nM; in assay [5], 1 to 100 nM.

Take `O=c1c(O)c(-c2ncc(Cc3ccc(Cl)c(Cl)c3)s2)nc2ccc(N3CCOCC3)cn12` [Example 42, 2-[5-(3,4-Dichloro-benzyl)-thiazol-2-yl]-3-hydroxy-7-morpholin-4-yl-pyrido[1,2-a]pyrimidin-4-one]: the EC50 in assay [1] fell in the range of 100 to 1000 nM; in [2], 1 to 10 µM; in assay [3], 100 to 1000 nM; with HIV WT integrase, 100 to 1000 nM; in assay [4], 100 to 1000 nM; in assay [5], 100 to 1000 nM.

As for `O=c1c(O)c(-c2ncc(Cc3ccc(F)cc3)[nH]2)nc2ccc(N3CCOCC3)cn12` [Example 45, 5-(4-Fluoro-benzyl)-2-(3-hydroxy-7-morpholin-4-yl-4-oxo-4H-pyrido[1,2-a]pyrimidin-2-yl)-1H-imidazol-1-ium chloride], the EC50 in [6] fell in the range of 1 to 100 nM; in assay [10], 100 to 1000 nM; in assay [11], 100 to 1000 nM; in assay [7] it was 100 to 1000 nM; in [8], 100 to 1000 nM; in assay [9], 100 to 1000 nM.

On to `CN1CCN(c2cc(N3CCOCC3)cn3c(=O)c(O)c(-c4ncc(Cc5ccc(F)cc5)s4)nc23)S1(=O)=O` [Example 99, 2-[5-(4-Fluoro-benzyl)-thiazol-2-yl]-3-hydroxy-9-(5-methyl-1,1-dioxo-1l6-[1,2,5]thiadiazolidin-2-yl)-7-morpholin-4-yl-pyrido[1,2-a]pyrimidin-4-one], for which the EC50 in assay [6] is 1 to 100 nM; in assay [10], 1 to 100 nM; in assay [11], 1 to 100 nM; in assay [7], 100 to 1000 nM; in [8], 1 to 100 nM; in [9], 1 to 100 nM.

For `CN1CCN(c2cc(N3CCOCC3)cn3c(=O)c(O)c(-c4ncc(Cc5ccc(F)cc5)s4)nc23)C1=O` [Example 101, 2-[5-(4-Fluoro-benzyl)-thiazol-2-yl]-3-hydroxy-9-(3-methyl-2-oxo-imidazolidin-1-yl)-7-morpholin-4-yl-pyrido[1,2-a]pyrimidin-4-one], the EC50 in assay [6] was in the range of 1 to 100 nM; in assay [10], 1 to 100 nM; in assay [11], 1 to 100 nM; in assay [7], 100 to 1000 nM; in assay [8], 1 to 100 nM; in assay [9] it was 1 to 100 nM.

As for `O=C1OCCN1c1cc(N2CCOCC2)cn2c(=O)c(O)c(-c3ncc(Cc4ccc(F)cc4)s3)nc12` [Example 103, 2-[5-(4-Fluoro-benzyl)-thiazol-2-yl]-3-hydroxy-7-morpholin-4-yl-9-(2-oxo-oxazolidin-3-yl)-pyrido[1,2-a]pyrimidin-4-one], the EC50 in assay [6] lay in the range of 1 to 100 nM; in assay [10] it was 1 to 100 nM; in assay [11] it was 1 to 100 nM; in [7] it was 100 to 1000 nM; in assay [8] it was 1 to 100 nM; in [9], 1 to 100 nM.

On to `O=c1c(O)c(-c2ncc(Cc3ccc(F)cc3)s2)nc2c(N3CCCS3(=O)=O)cc(N3CCOCC3)cn12` [Example 105, 9-(1,1-Dioxo-1l6-isothiazolidin-2-yl)-2-[5-(4-fluoro-benzyl)-thiazol-2-yl]-3-hydroxy-7-morpholin-4-yl-pyrido[1,2-a]pyrimidin-4-one], for which the EC50 in assay [6] lay within 1 to 100 nM; in [10], 1 to 100 nM; in [11], 1 to 100 nM; in assay [7] it was 100 to 1000 nM; in [8] it was 1 to 100 nM; in assay [9] it was 100 to 1000 nM.
